Patent US11667632B2, “2-(1H-indazol-3-yl)-3H-imidazo[4,5-C]pyridines and their anti-inflammatory uses thereof” (BioSplice Therapeutics, Inc., priority 2015, dated 2023)

Key:
Interleukin 6 (IL-6) = experiment: Inhibition of IL-6 secretion in IL-1β-stimulated synovial fibroblasts (SW982), ELISA; format: cell-based; conditions: human synovial fibroblasts stimulated with IL-1β, treated 24 hrs, FIG. 14A
Method: Synovial fibroblasts (SW982 cells; ATCC) were cultured in Leibovitz's L-15 Medium (ATCC) with 10% FBS at 37° C. and 0% CO2. 24 hours before the start of the assay, media was changed to Leibovitz's L-15 Medium with […]. Compound 10 was dissolved in DMSO as a 10 mM stock and used to prepare compound source plates. A serial dilution (8-point dose-response) and compound transfer was performed using the ECHO 550 (Labcyte, Sunnyvale, Calif.) into 96-well clear bottom assay plates (Greiner Bio-One) with appropriate DMSO backfill for a final DMSO concentration of 0.05%. […] Plates were spun in a centrifuge for 1 minute at 10,000 rpm and supernatants were collected for ELISA.
Supernatants were diluted 1:1 for the TNFα assay and 1:4 for the IL6 assay using the assay medium. ELISA was performed using Human TNF-α ELISA MAX™ Deluxe (Catalog #430204, Biolegend, San Diego, Calif.) and Human IL-6 ELISA MAX™ Deluxe (Catalog #430504, Biolegend, San Diego, Calif.) kits. […] Following several washes to remove unbound avidin-HRP, the TMB substrate was added and the plates were read on the Cytation 3 plate reader (Biotek Inc., Winooski, Vt.) at an absorbance of 450 nm with correction at 570 nm. […] Inhibition profile and EC50 was calculated using Prism 5 (GraphPad Software Inc, La Jolla, Calif., USA).

IL-5 = experiment: Inhibition of IL-5 in LPS-stimulated primary PBMCs (MSD U-plex); format: cell-based; conditions: human PBMCs, LPS (500 ng/mL), Compound 10 (150 nM), 24 hrs; MSD platform; FIG. 15
Method: (§1) Primary peripheral blood mononuclear cells (PBMCs) freshly isolated from healthy human donors were obtained from AllCells Inc. and utilized for assays immediately. Compound 10 was dissolved in DMSO as a 10 mM stock and used to prepare compound source plates. A serial dilution (8-point dose-response) and compound transfer was performed using the ECHO 550 (Labcyte, Sunnyvale, Calif.) into 96-well clear bottom assay plates (Greiner Bio-One) with appropriate DMSO backfill for a final DMSO concentration of 0.05%. PBMCs were plated at 2×10e^5 cells/well in Roswell Park Memorial Institute (RPMI) 1640 Medium (Catalog #21870-100, Buffalo, N.Y.) with 1% L-glutamine, 1% HEPES, 1% Sodium Pyruvate, 2% Sodium Bicarbonate supplemented with 100 units/mL penicillin, 50 μg/mL streptomycin and 1% fetal bovine serum (Catalog #16140089, Life Technologies, Carlsbad, Calif.). […]
(§2) Supernatants were diluted appropriately for ELISA. […] Following several washes to remove unbound avidin-HRP, the TMB substrate was added and the plates were read on the Cytation 3 plate reader (Biotek Inc., Winooski, Vt.) at an absorbance of 450 nm with correction at 570 nm. […] Inhibition profile and EC50 was calculated using Prism 5 (GraphPad Software Inc, La Jolla, Calif., USA). […] Levels of cytokines were calculated using software form Meso Scale Discovery.

TNF-α = experiment: Inhibition of TNF-α in LPS-stimulated primary PBMCs (ELISA, MSD U-plex); format: cell-based; conditions: human PBMCs, LPS (500 ng/mL), Compound 10 (150 nM), 24 hrs; MSD platform; FIG. 15
Method: as §1, §2

Interleukin 1β (IL1β) = experiment: Inhibition of inflammatory cytokine expression in IL-1β-stimulated synovial fibroblasts, qRT-PCR; format: cell-based; conditions: human synovial fibroblasts, IL-1β (100 ng/mL), Compound 10 at 100 nM and 30 nM, 24 hrs; FIG. 14B
Method: Synovial fibroblasts were plated in 6-well plates at 0.5 million cells per well in Leibovitz's L-15 Medium with 1% FBS. Compound 10 dissolved in DMSO was added to the wells at different concentrations. […] Cells were harvested by trypsinization, pelleted, washed with PBS and Total RNA was isolated using RNeasy Mini Kit (Qiagen). cDNA was synthesized using the QuantiTect Reverse Transcription kit (Qiagen). qRT-PCR was performed with QuantiTect SYBR Green PCR Kit (Qiagen) and gene-specific primers, using CFX384 (Biorad). Transcripts were quantitated by comparative Ct method and normalized to endogenous controls, β-actin and GAPDH.

[1] = Persistence of radiolabeled Compound 10 in rabbit knee joints; format: in vivo; conditions: rabbits; two single IA injections in two knees at 4 μg/knee; after 1 hour up to 168 hours
[2] = Stability and radiochemical purity of the [3H]-Compound 10 formulation incubated at 37° C.; format: physicochemical
Method: The stability and radiochemical purity (RCP) of the radiolabeled [^3H]-Compound 10 was established in a concurrent experiment where a formulation of radiolabeled [3^H]-Compound 10 was incubated at 37° C. and radiochemical purity (RCP) of aliquots were analyzed over time and determined to be ˜ 95.5% (Days 0, 7, 14 and 30), 94.5% (Day 60), 93% (Day 90), and 83% (Day 180).

[3] = Persistence and half-life of radiolabeled Compound 10 in rat knee joints; format: in vivo; conditions: SD rats
Excerpt: […] These same animals were used for the QWBA experiments (above).
On Day 180, only about ˜6.6% of administered dose was detected.

[4] = time points Days 14-90 only, excluding Day 180

administered radioactivity recovered in the knee [1]: 75% | radiochemical purity (RCP) of formulation over time ([2]; Day 60): 94.5% | radiochemical purity (RCP) of formulation over time ([2]; Day 90): 93% | radiochemical purity (RCP) of formulation over time ([2]; Day 180): 83% | radiochemical purity (RCP) of formulation over time ([2]; Days 0, 7, 14 and 30): ~95.5% | mean % of administered dose per knee ([3]; 1 μg/knee IA, Day 14): 64% | mean % of administered dose per knee ([3]; 1 μg/knee IA, Day 30): 54% | mean % of administered dose per knee ([3]; 1 μg/knee IA, Day 60): 42% | mean % of administered dose per knee ([3]; 1 μg/knee IA, Day 90): 38% | % of administered dose detected in knee joint ([3]; 1 μg/knee IA, Day 180): ~6.6% | detection in the knee joint space (radiographic images) ([3]; Day 180): still detectable | elimination rate constant, Ke ([3]; all time points, Days 14-180): 0.01342 | half-life (T1/2) in the knee joint ([3]; all time points, Days 14-180): 51.64 days | elimination rate constant, Ke [3, 4]: 0.00687 | half-life (T1/2) in the knee joint [3, 4]: 100.9 days | administered radioactivity recovered in each knee joint ([3]; two IA injections at 1 μg/knee, 1 h post-IA injection up to 168 h): 60-85%
Compound: CC(C)CC(=O)Nc1cncc(-c2ccc3[nH]nc(-c4nc5c(-c6cccc(F)c6)cncc5[nH]4)c3c2)c1 [Compound 10]
inhibition of IL-6 secretion (Interleukin 6 (IL-6)): inhibition | Inhibition of IL-5 (IL-5): Inhibition | Inhibition of TNF-α (TNF-α): Inhibition | inhibition of inflammatory cytokine secretion (qRT-PCR) (Interleukin 1β (IL1β)): inhibition
